Test results published in patent publication US20240208962A1, “MICROBIOCIDAL QUINOLINE/QUINOXALINE BENZOTHIAZINE DERIVATIVES” (SYNGENTA CROP PROTECTION AG, priority 2021, published 2024).

What was measured:
[1] = test system: Botryotinia fuckeliana (Botrytis cinerea); assay: Botryotinia fuckeliana (Botrytis cinerea) / liquid culture (Gray mould); type: cell-based; details: liquid culture Vogels broth, 3-4 days after application, read-out: control of Botryotinia fuckeliana (inhibition of growth, photometric)
[2] = test system: Glomerella lagenarium (Colletotrichum lagenarium); assay: Glomerella lagenarium (Colletotrichum lagenarium) / liquid culture (Anthracnose); type: cell-based; details: Colletotrichum orbiculare, liquid culture PDB, 3-4 days after application, read-out: control of Glomerella lagenarium (inhibition of growth, photometric)
Fusarium culmorum = assay: microbe, parasite or virus in culture; type: cell-based; details: read-out: control of Fusarium culmorum (inhibition of growth, photometric)
[3] = test system: Monographella nivalis (Microdochium nivale); assay: Monographella nivalis (Microdochium nivale) / liquid culture (foot rot cereals); type: cell-based; details: liquid culture PDB, 4 to 5 days after application, read-out: control of Monographella nivalis (inhibition of growth, photometric)
[4] = test system: Mycosphaerella graminicola (Septoria tritici); assay: Mycosphaerella graminicola (Septoria tritici) on wheat / preventative; type: in vivo; details: Zymoseptoria tritici, wheat plants cv. Riband, preventative spray, 16 to 19 days after application, read-out: control of Mycosphaerella graminicola compared to untreated control
Botrytis cinerea = assay: Comparative: Botrytis cinerea / tomato / preventative; type: in vivo; details: rate of application 200 ppm, Botrytis cinerea on tomato, emulsifiable concentrate, 5-6 days after application
Venturia inaequalis = assay: Comparative: Venturia inaequalis / apple / preventative (Scab on apple); type: in vivo; details: rate of application 200 ppm, Venturia inaequalis on apple seedlings, emulsifiable concentrate, 11-13 days after application
[5] = test system: Mycosphaerella graminicola (Septoria tritici); assay: Comparative: Mycosphaerella graminicola (Septoria tritici) on wheat / preventative, emulsifiable concentrate; type: in vivo; details: rate of application 60 ppm, Mycosphaerella graminicola on wheat cv. Riband, 16 to 19 days after application
[6] = test system: Colletotrichum lagenarium; assay: Comparative: Colletotrichum lagenarium / cucumber / preventative (Anthracnose); type: in vivo; details: rate of application 200 ppm, Colletotrichum lagenarium on cucumber cv. Wisconsin, emulsifiable concentrate, 6-8 days after application

SMILES | inhibition at 20 ppm [1] | inhibition at 20 ppm [2] | inhibition at 20 ppm (Fusarium culmorum) | inhibition at 20 ppm [3] | pest or weed control at 60 ppm [4] | melting point | Efficacy (% control) (Botrytis cinerea) | Efficacy (% control) (Venturia inaequalis) | Efficacy (% control) [5] | Efficacy (% control) [6]
Cc1ccc2c(c1C)SC(C)(C)N=C2c1cnc2c(F)cccc2c1 [E.11, 4-(8-fluoro-3-quinolyl)-2,2,7,8-tetramethyl-1,3-benzothiazine] | ≥ 80% | ≥ 80% | ≥ 80% | ≥ 80% | ≥ 80% |  |  |  |  | 
Cc1c(C#N)ccc2c1SC(C)(C)N=C2c1cnc2c(F)c(F)ccc2c1 [E.22, 4-(7,8-difluoro-3-quinolyl)-2,2,8-trimethyl-1,3-benzothiazine-7-carbonitrile] | ≥ 80% |  |  |  |  | 216 to 218 °C |  |  |  | 
Cc1nc2c(F)cccc2cc1C1=NC(C)(C)Sc2c(Cl)cccc21 [E.20, 8-chloro-4-(8-fluoro-2-methyl-3-quinolyl)-2,2-dimethyl-1,3-benzothiazine] | ≥ 80% | ≥ 80% |  | ≥ 80% |  | 134 to 136 °C |  |  |  | 
Cc1ccc2c(c1F)SC(C)(C)N=C2c1cnc2c(F)c(F)ccc2c1 [E.16, 4-(7,8-difluoro-3-quinolyl)-8-fluoro-2,2,7-trimethyl-1,3-benzothiazine] | ≥ 80% |  | ≥ 80% | ≥ 80% | ≥ 80% |  |  |  |  | 
CC1(C(F)F)N=C(c2cnc3c(F)cccc3c2)c2cccc(Cl)c2S1 (stereo not shown) [E.09, 8-chloro-2-(difluoromethyl)-4-(8-fluoro-3-quinolyl)-2-methyl-1,3-benzothiazine] | ≥ 80% | ≥ 80% | ≥ 80% | ≥ 80% |  |  |  |  |  | 
Cc1ccc2c(c1F)SC(C)(C)N=C2c1cnc2c(F)cccc2c1 [Compound E.08, 8-fluoro-4-(8-fluoro-3-quinolyl)-2,2,7-trimethyl-1,3-benzothiazine] | ≥ 80% | ≥ 80% | ≥ 80% | ≥ 80% | ≥ 80% | 159 to 161 °C | 97 % control | 80 % control | 89 % control | 
Cc1cccc2c1SC(C)(C)N=C2c1cnc2c(F)cccc2c1 [Compound E.14, 4-(8-fluoro-3-quinolyl)-2,2,8-trimethyl-1,3-benzothiazine] | ≥ 80% | ≥ 80% | ≥ 80% | ≥ 80% | ≥ 80% |  | 93 % control | 100 % control | 83 % control | 97 % control
Cc1ccc2c(c1Cl)SC(C)(C)N=C2c1cnc2c(F)cccc2c1 [Compound E.13, 8-chloro-4-(8-fluoro-3-quinolyl)-2,2,7-trimethyl-1,3-benzothiazine] | ≥ 80% | ≥ 80% | ≥ 80% | ≥ 80% | ≥ 80% |  |  |  | 96 % control | 
Cc1cccc2c1SC(C)(C)N=C2c1cnc2c(F)c(F)ccc2c1 [Compound E.01, 4-(7,8-difluoro-3-quinolyl)-2,2,8-trimethyl-1,3-benzothiazine] | ≥ 80% | ≥ 80% |  |  | ≥ 80% | 137 to 139 °C | 97 % control | 97 % control | 72 % control | 97 % control
COc1c(Cl)ccc2c1SC(C)(C)N=C2c1cnc2c(F)cccc2c1 [E.24, 7-chloro-4-(8-fluoro-3-quinolyl)-8-methoxy-2,2-dimethyl-1,3-benzothiazine] | ≥ 80% |  | ≥ 80% | ≥ 80% |  |  |  |  |  | 
Cc1cccc2c1S[C@](C)(C(F)F)N=C2c1cnc2c(F)cccc2c1 [E.06, (2R)-2-(difluoromethyl)-4-(8-fluoro-3-quinolyl)-2,8-dimethyl-1,3-benzothiazine] | ≥ 80% | ≥ 80% | ≥ 80% | ≥ 80% |  |  |  |  |  | 
CC1(C)N=C(c2cnc3c(F)cccc3n2)c2cccc(Cl)c2S1 [E.17, 8-chloro-4-(5-fluoroquinoxalin-2-yl)-2,2-dimethyl-1,3-benzothiazine] | ≥ 80% | ≥ 80% | ≥ 80% | ≥ 80% |  |  |  |  |  | 
Cc1cccc2c1SC(C)(C(F)F)N=C2c1cnc2c(F)cccc2c1 (stereo not shown) [E.15, 2-(difluoromethyl)-4-(8-fluoro-3-quinolyl)-2,8-dimethyl-1,3-benzothiazine] | ≥ 80% | ≥ 80% | ≥ 80% | ≥ 80% |  |  |  |  |  | 
Cc1c(Cl)ccc2c1SC(C)(C)N=C2c1cnc2c(F)c(F)ccc2c1 [E.21, 7-chloro-4-(7,8-difluoro-3-quinolyl)-2,2,8-trimethyl-1,3-benzothiazine] | ≥ 80% |  | ≥ 80% | ≥ 80% |  | 161 to 163 °C |  |  |  | 
Cc1ccc2c(c1C#N)SC(C)(C)N=C2c1cnc2c(F)cccc2c1 [E.10, 4-(8-fluoro-3-quinolyl)-2,2,7-trimethyl-1,3-benzothiazine-8-carbonitrile] | ≥ 80% |  | ≥ 80% |  |  |  |  |  |  | 
CC1(C)N=C(c2cnc3c(F)cccc3c2)c2cccc(F)c2S1 [Comparative compound A, reference compound] |  |  |  |  |  |  | 95 % control | 100 % control | 11 % control | 80 % control
CC1(C)N=C(c2cnc3c(F)cccc3c2)c2cccc(Cl)c2S1 [Compound E.12, 8-chloro-4-(8-fluoro-3-quinolyl)-2,2-dimethyl-1,3-benzothiazine] | ≥ 80% | ≥ 80% | ≥ 80% | ≥ 80% | ≥ 80% | 158 to 160 °C | 95 % control | 100 % control | 92 % control | 100 % control
Cc1c(C#N)ccc2c1SC(C)(C)N=C2c1cnc2c(F)cccc2c1 [E.23, 4-(8-fluoro-3-quinolyl)-2,2,8-trimethyl-1,3-benzothiazine-7-carbonitrile] | ≥ 80% |  | ≥ 80% | ≥ 80% |  | 88 to 90 °C |  |  |  | 
CC1(C)N=C(c2cnc3c(F)c(F)ccc3c2)c2cccc(Cl)c2S1 [Compound E.02, 8-chloro-4-(7,8-difluoro-3-quinolyl)-2,2-dimethyl-1,3-benzothiazine] | ≥ 80% | ≥ 80% |  |  | ≥ 80% | 134 to 136 °C | 95 % control | 97 % control | 99 % control | 97 % control
Cc1c(Cl)ccc2c1SC(C)(C)N=C2c1cnc2c(F)cccc2c1 [E.25, 7-chloro-4-(8-fluoro-3-quinolyl)-2,2,8-trimethyl-1,3-benzothiazine] | ≥ 80% | ≥ 80% | ≥ 80% |  | ≥ 80% | 68 to 70 °C |  |  |  | 
CC1(C)N=C(c2cnc3c(F)cccc3c2)c2ccc(Cl)c(Cl)c2S1 [E.05, 7,8-dichloro-4-(8-fluoro-3-quinolyl)-2,2-dimethyl-1,3-benzothiazine] | ≥ 80% | ≥ 80% | ≥ 80% | ≥ 80% | ≥ 80% |  |  |  |  | 
CC1(Cc2ccc(Cl)nc2)N=C(c2cnc3c(F)cccc3c2)c2cccc(Cl)c2S1 (stereo not shown) [E.19, 8-chloro-2-[(6-chloro-3-pyridyl)methyl]-4-(8-fluoro-3-quinolyl)-2-methyl-1,3-benzothiazine] | ≥ 80% | ≥ 80% | ≥ 80% | ≥ 80% |  |  |  |  |  | 
CSc1cccc2c1SC(C)(C)N=C2c1cnc2c(F)cccc2c1 [E.04, 4-(8-fluoro-3-quinolyl)-2,2-dimethyl-8-methylsulfanyl-1,3-benzothiazine] | ≥ 80% | ≥ 80% | ≥ 80% | ≥ 80% |  |  |  |  |  | 
CC1(Cc2ccc(Cl)nc2)N=C(c2cnc3c(F)c(F)ccc3c2)c2cccc(Cl)c2S1 (stereo not shown) [E.18, 8-chloro-2-[(6-chloro-3-pyridyl)methyl]-4-(7,8-difluoro-3-quinolyl)-2-methyl-1,3-benzothiazine] | ≥ 80% | ≥ 80% |  | ≥ 80% |  |  |  |  |  | 
CC1(C)N=C(c2cnc3c(F)cccc3c2)c2ccc(F)c(F)c2S1 [E.03, 7,8-difluoro-4-(8-fluoro-3-quinolyl)-2,2-dimethyl-1,3-benzothiazine] | ≥ 80% | ≥ 80% | ≥ 80% | ≥ 80% | ≥ 80% |  |  |  |  | 
